According to ChEMBL document CHEMBL4145686, “Discovery of a Potent and Selective Steroidal Glucocorticoid Receptor Antagonist (ORIC-101)” (J Med Chem, 2018):

Key:
[1] = Volume of distribution at steady state in rat at 0.5 mg/kg, iv; format: ADME, organism-based; details: in vivo, read-out: Vdss
[2] = biological target: T1, androgen receptor (AR) (Homo sapiens, UniProt P10275); test: Agonist activity at AR (unknown origin) expressed in human LNCaP cells incubated for 20 hrs by luciferase reporter gene assay relative to mifepristone; format: cell-based; details: human LNCaP cells expressing AR
T1 sequence (P10275 whole entry): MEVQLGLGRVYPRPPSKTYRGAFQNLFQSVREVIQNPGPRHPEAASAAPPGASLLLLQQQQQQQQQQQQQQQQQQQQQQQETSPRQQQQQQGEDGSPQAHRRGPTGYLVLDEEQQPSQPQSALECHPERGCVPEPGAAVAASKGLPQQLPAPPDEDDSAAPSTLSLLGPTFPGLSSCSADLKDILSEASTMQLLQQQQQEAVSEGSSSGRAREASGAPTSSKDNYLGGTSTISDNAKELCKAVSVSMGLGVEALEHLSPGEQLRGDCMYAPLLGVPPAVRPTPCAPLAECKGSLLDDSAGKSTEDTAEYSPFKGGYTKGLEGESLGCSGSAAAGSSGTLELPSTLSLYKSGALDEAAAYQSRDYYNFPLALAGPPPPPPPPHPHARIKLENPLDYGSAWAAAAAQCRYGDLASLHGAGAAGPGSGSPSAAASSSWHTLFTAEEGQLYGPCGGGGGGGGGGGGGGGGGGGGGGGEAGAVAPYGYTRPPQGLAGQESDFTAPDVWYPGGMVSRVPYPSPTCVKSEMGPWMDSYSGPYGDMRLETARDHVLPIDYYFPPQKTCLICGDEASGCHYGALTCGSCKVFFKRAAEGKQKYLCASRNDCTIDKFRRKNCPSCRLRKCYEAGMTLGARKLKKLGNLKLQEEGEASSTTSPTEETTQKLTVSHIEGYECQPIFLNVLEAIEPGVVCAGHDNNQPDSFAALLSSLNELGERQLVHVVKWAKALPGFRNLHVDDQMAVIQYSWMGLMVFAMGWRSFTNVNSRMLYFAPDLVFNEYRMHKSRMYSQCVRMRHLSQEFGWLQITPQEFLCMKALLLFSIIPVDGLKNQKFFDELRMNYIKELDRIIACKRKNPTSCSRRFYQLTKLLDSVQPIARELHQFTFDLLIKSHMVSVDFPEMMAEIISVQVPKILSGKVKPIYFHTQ

[3] = biological target: T2, Androgen receptor (Homo sapiens, UniProt P10275); test: Agonist activity at AR (unknown origin) expressed in human LNCaP cells incubated for 20 hrs by luciferase reporter gene assay; format: cell-based
T2 sequence (P10275 whole entry): T1 sequence (P10275 whole entry)

[4] = Clearance in rat at 0.5 mg/kg, iv; format: ADME, organism-based; details: in vivo
[5] = Half life in rat at 0.5 mg/kg, iv; format: ADME, organism-based; details: in vivo
[6] = biological target: T3, glucocorticoid receptor (GR) (Homo sapiens, UniProt P04150); test: Agonist activity at human GR expressed in CHO-K1 cells incubated for 20 hrs by luciferase reporter gene assay relative to dexamethasone; format: cell-based; details: CHO-K1 cells expressing human GR
T3 sequence (P04150 whole entry): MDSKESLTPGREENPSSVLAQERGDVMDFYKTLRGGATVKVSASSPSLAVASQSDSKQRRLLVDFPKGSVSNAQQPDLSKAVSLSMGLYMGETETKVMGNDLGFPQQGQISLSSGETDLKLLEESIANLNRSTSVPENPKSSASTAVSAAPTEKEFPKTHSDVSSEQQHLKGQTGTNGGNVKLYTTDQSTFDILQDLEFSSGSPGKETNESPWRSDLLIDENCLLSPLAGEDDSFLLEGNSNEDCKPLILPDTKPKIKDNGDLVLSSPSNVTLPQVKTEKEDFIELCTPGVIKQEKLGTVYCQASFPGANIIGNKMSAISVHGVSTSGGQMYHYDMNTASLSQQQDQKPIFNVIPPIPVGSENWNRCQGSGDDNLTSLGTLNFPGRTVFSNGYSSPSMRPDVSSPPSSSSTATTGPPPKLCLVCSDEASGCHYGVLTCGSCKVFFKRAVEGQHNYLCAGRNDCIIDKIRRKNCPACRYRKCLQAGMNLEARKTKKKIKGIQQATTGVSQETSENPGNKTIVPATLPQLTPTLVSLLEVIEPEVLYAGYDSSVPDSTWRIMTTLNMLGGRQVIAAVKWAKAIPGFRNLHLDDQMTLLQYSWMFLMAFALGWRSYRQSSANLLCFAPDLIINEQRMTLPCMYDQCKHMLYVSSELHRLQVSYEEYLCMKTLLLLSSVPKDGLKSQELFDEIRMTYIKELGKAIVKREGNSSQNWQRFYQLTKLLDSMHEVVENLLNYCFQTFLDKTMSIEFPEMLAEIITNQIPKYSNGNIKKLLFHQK

[7] = biological target: T4, Glucocorticoid receptor (Homo sapiens, UniProt P04150); test: Antagonist activity at human GR expressed in CHO-K1 cells assessed as reduction in dexamethasone-induced response incubated for 20 hrs by luciferase reporter gene assay; format: cell-based
T4 sequence (P04150 whole entry): T3 sequence (P04150 whole entry)

[8] = Oral bioavailability in rat at 5 mg/kg; format: ADME, organism-based; details: in vivo
[9] = biological target: T4, Glucocorticoid receptor; test: Agonist activity at human GR expressed in CHO-K1 cells incubated for 20 hrs by luciferase reporter gene assay; format: cell-based
[10] = Cmax in rat at 5 mg/kg, po; format: ADME, organism-based; parameters: dose 5 mg/kg, route oral; details: in vivo
[11] = AUC in rat at 5 mg/kg, po; format: ADME, organism-based; details: in vivo

Vd [1] [L/kg]	Emax at 20 h [2] [%]	EC50 [3] [nM]	clearance [4] [mL/min/kg]	half-life [5] [h]	Emax at 20 h [6] [%]	IC50 [7] [nM]	bioavailability [8] [%]	EC50 [9] [nM]	Cmax [10] [ng/mL]	AUC [11] [ng·h/mL]	SMILES
	11	> 2500			1.3	12.4		> 2500			CN(C)c1cc(F)c([C@H]2C[C@@]3(C)[C@@H](CC[C@@]3(O)C#CC(C)(C)C)[C@@H]3CCC4=CC(=O)CCC4=C32)c(F)c1
	8.8	> 2500			1.3	43		> 2500			CN(C)c1c(F)cc([C@H]2C[C@@]3(C)[C@@H](CC[C@@]3(O)C#CC(C)(C)C)[C@@H]3CCC4=CC(=O)CCC4=C32)cc1F
	25	> 2500			1.5	16		> 2500			CC(C)c1ccc([C@H]2C[C@@]3(C)[C@@H](CC[C@@]3(O)C#CC(C)(C)C)[C@@H]3CCC4=CC(=O)CCC4=C32)cc1
	5.7	> 2500			1	48		> 2500			COc1cc([C@H]2C[C@@]3(C)[C@@H](CC[C@@]3(O)C#CC(C)(C)C)[C@@H]3CCC4=CC(=O)CCC4=C32)ccc1N(C)C
	7.5	> 2500			1.3	205		> 2500			CN(C)c1cccc([C@H]2C[C@@]3(C)[C@@H](CC[C@@]3(O)C#CC(C)(C)C)[C@@H]3CCC4=CC(=O)CCC4=C32)c1
	16	> 2500			1.5	16.1		> 2500			Cc1ccc([C@H]2C[C@@]3(C)[C@@H](CC[C@@]3(O)C#CC(C)(C)C)[C@@H]3CCC4=CC(=O)CCC4=C32)cc1
4.7	8.2	> 2500	66.7	1.5	1.7	43	23	> 2500	59	290	CC(C)N(C)c1ccc([C@H]2C[C@@]3(C)[C@@H](CC[C@@]3(O)C#CC(C)(C)C)[C@@H]3CCC4=CC(=O)CCC4=C32)cc1
	17	> 2500			1.2	28		> 2500			Cc1cc([C@H]2C[C@@]3(C)[C@@H](CC[C@@]3(O)C#CC(C)(C)C)[C@@H]3CCC4=CC(=O)CCC4=C32)ccc1N(C)C

The next lines start with the molecule.

SMILES	Vd [1] [L/kg]	Emax at 20 h [2] [%]	EC50 [3] [nM]	clearance [4] [mL/min/kg]	half-life [5] [h]	Emax at 20 h [6] [%]	IC50 [7] [nM]	bioavailability [8] [%]	EC50 [9] [nM]	Cmax [10] [ng/mL]	AUC [11] [ng·h/mL]
CCc1ccc([C@H]2C[C@@]3(C)[C@@H](CC[C@@]3(O)C#CC(C)(C)C)[C@@H]3CCC4=CC(=O)CCC4=C32)cc1	1.7	20	> 2500	6.83	3.4	1.5	17.5	0	> 2500		
CC(C)(C)C#C[C@]1(O)CC[C@H]2[C@@H]3CCC4=CC(=O)CCC4=C3[C@@H](c3ccc(N4CCS(=O)(=O)CC4)cc3)C[C@@]21C		23	> 2500			1.8	16.7		> 2500		
CC#C[C@]1(O)CC[C@H]2[C@@H]3CCC4=CC(=O)CCC4=C3[C@@H](CC)C[C@@]21C		47	> 2500			36	> 5000		57		
COc1ccc([C@H]2C[C@@]3(C)[C@@H](CC[C@@]3(O)C#CC(C)(C)C)[C@@H]3CCC4=CC(=O)CCC4=C32)cc1		9.8	> 2500			1.1	16.6		> 2500		
CC#C[C@]1(O)CC[C@H]2[C@@H]3CCC4=CC(=O)CCC4=C3[C@@H](c3cccc(N(C)C)c3)C[C@@]21C		5.8	> 2500			1.5	64		> 2500		
CC(C)C#C[C@]1(O)CC[C@H]2[C@@H]3CCC4=CC(=O)CCC4=C3[C@@H](c3ccc(N(C)C)cc3)C[C@@]21C		50	> 2500			1.8	26		> 2500		
CN(C)c1ccc([C@H]2C[C@@]3(C)[C@@H](CC[C@@]3(O)C#CC(C)(C)C)[C@@H]3CCC4=CC(=O)CC[C@@H]4[C@H]32)cc1		22	224			2.2	5.6		> 2500		
CC#C[C@]1(O)CC[C@H]2[C@@H]3CCC4=CC(=O)CCC4=C3[C@@H](c3ccccc3)C[C@@]21C		27	> 2500			7	14.2		17.4		
CN(C)c1ccc([C@H]2C[C@@]3(C)[C@@H](CC[C@@]3(O)C#CC(F)(F)F)[C@@H]3CCC4=CC(=O)CCC4=C32)cc1		117	54			2.4	11.2		> 2500		
CC(C)(C)C#C[C@]1(O)CC[C@H]2[C@@H]3CCC4=CC(=O)CCC4=C3[C@@H](c3ccc(N4CCOCC4)cc3)C[C@@]21C		18.7	> 2500			1.5	13.3		> 2500		
CC#C[C@]1(O)CC[C@H]2[C@@H]3CCC4=CC(=O)CCC4=C3[C@@H](c3ccc(C(C)C)cc3)C[C@@]21C		198	13			3.1	1.93		> 2500		
CC(C)(C)C#C[C@]1(O)CC[C@H]2[C@@H]3CCC4=CC(=O)CCC4=C3[C@@H](c3ccc(N4CCCC4)cc3)C[C@@]21C	1.5	13.3	> 2500	4.67	3.6	1.2	19.5	0.7	> 2500	21	167
CC(C)(C)C#C[C@]1(O)CC[C@H]2[C@@H]3CCC4=CC(=O)CCC4=C3[C@@H](c3ccc(C4(C)COC4)cc3)C[C@@]21C	6.7	11	> 2500	50	4.4	2.2	9.6	7.2	> 2500	59	123
CC#C[C@]1(O)CC[C@H]2[C@@H]3CCC4=CC(=O)CCC4=C3[C@@H](C3CCCCC3)C[C@@]21C		26	> 2500			9.3	18.1		> 2500		
CCC#C[C@]1(O)CC[C@H]2[C@@H]3CCC4=CC(=O)CCC4=C3[C@@H](c3ccc(N(C)C)cc3)C[C@@]21C		101	30			2.1	8.5		> 2500		
